Laboratory results published in PubChem BioAssay (NCI).
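Cultured in 96-well plates, cells were exposed to test compound for 48 hours across five concentrations. Abbreviation: GI50, concentration required for 50% inhibition of growth. Definition used: TGI = concentration required for complete inhibition of growth.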

Columns and labels:
Assay in all cases: inhibition of tumour cell growth, NCI panel, 48 h
OVCAR-5 ovarian = test system: OVCAR-5 ovarian
MCF7 breast = test system: MCF7 breast
NCI-H23 lung = test system: NCI-H23 lung
MDA-MB-231 breast = test system: MDA-MB-231 breast
U251 CNS = test system: U251 CNS
MOLT-4 leukemia = test system: MOLT-4 leukemia
LOX IMVI melanoma = test system: LOX IMVI melanoma
EKVX NSCLC = test system: EKVX NSCLC
HT29 colon = test system: HT29 colon
NCI-H522 lung = test system: NCI-H522 lung
MDA-MB-435 = test system: MDA-MB-435
786-0 renal = test system: 786-0 renal
CCRF-CEM leukemia = test system: CCRF-CEM leukemia
SW-620 colon = test system: SW-620 colon
HL-60(TB) leukemia = test system: HL-60(TB) leukemia
BT-549 breast = test system: BT-549 breast
SF-539 CNS = test system: SF-539 CNS
SK-MEL-2 melanoma = test system: SK-MEL-2 melanoma
IGROV1 ovarian = test system: IGROV1 ovarian
KM12 colon = test system: KM12 colon
NCI-H226 lung = test system: NCI-H226 lung
UACC-62 melanoma = test system: UACC-62 melanoma
SK-OV-3 ovarian = test system: SK-OV-3 ovarian
RPMI-8226 leukemia = test system: RPMI-8226 leukemia
PC-3 prostate = test system: PC-3 prostate
SNB-75 CNS = test system: SNB-75 CNS
NCI-H460 lung = test system: NCI-H460 lung
HOP-62 NSCLC = test system: HOP-62 NSCLC
ACHN renal = test system: ACHN renal
SNB-19 CNS = test system: SNB-19 CNS
SF-295 CNS = test system: SF-295 CNS
HCT-116 colon = test system: HCT-116 colon
HCC-2998 colon = test system: HCC-2998 colon
RXF 393 renal = test system: RXF 393 renal
NCI/ADR-RES ovarian = test system: NCI/ADR-RES ovarian
SF-268 CNS = test system: SF-268 CNS
CAKI-1 renal = test system: CAKI-1 renal
DU-145 prostate = test system: DU-145 prostate
SN12C renal = test system: SN12C renal
UO-31 renal = test system: UO-31 renal
SK-MEL-28 melanoma = test system: SK-MEL-28 melanoma
OVCAR-3 ovarian = test system: OVCAR-3 ovarian
HOP-92 NSCLC = test system: HOP-92 NSCLC
M14 melanoma = test system: M14 melanoma
T-47D breast = test system: T-47D breast
UACC-257 melanoma = test system: UACC-257 melanoma
SR leukemia = test system: SR leukemia
SK-MEL-5 melanoma = test system: SK-MEL-5 melanoma
HS 578T breast = test system: HS 578T breast
OVCAR-8 ovarian = test system: OVCAR-8 ovarian
TK-10 renal = test system: TK-10 renal
OVCAR-4 ovarian = test system: OVCAR-4 ovarian
A549 NSCLC = test system: A549 NSCLC
COLO 205 colon = test system: COLO 205 colon
A498 renal = test system: A498 renal
HCT-15 colon = test system: HCT-15 colon
K-562 leukemia = test system: K-562 leukemia

## C=C(C)C(=O)Oc1ccc(N=Nc2ccc(C)cc2)ccc1=O
OVCAR-5 ovarian
  GI50: 8.26 µM
  TGI: 21.8 µM
MCF7 breast
  GI50: 3.66 µM
  TGI: 14.7 µM
NCI-H23 lung
  GI50: 4.52 µM
  TGI: 17.8 µM
MDA-MB-231 breast
  GI50: 4.84 µM
  TGI: 22 µM
U251 CNS
  GI50: 3.11 µM
  TGI: 12.7 µM
MOLT-4 leukemia
  GI50: 2570 nM
  TGI: 8.18 µM
LOX IMVI melanoma
  GI50: 2720 nM
  TGI: 11.4 µM
EKVX NSCLC
  GI50: 2320 nM
  TGI: 8.76 µM
HT29 colon
  GI50: 4.28 µM
  TGI: 15.1 µM
NCI-H522 lung
  GI50: 4.95 µM
  TGI: 18.1 µM
MDA-MB-435
  GI50: 2770 nM
  TGI: 11.2 µM
786-0 renal
  GI50: 4.96 µM
  TGI: 17.8 µM
CCRF-CEM leukemia
  GI50: 2240 nM
  TGI: 9.36 µM
SW-620 colon
  GI50: 3.16 µM
  TGI: 13.4 µM
HL-60(TB) leukemia
  GI50: 2390 nM
  TGI: 7.04 µM
BT-549 breast
  GI50: 6.63 µM
  TGI: 21.3 µM
SF-539 CNS
  GI50: 5.17 µM
  TGI: 18.1 µM
SK-MEL-2 melanoma
  GI50: 8.31 µM
  TGI: 28.6 µM
IGROV1 ovarian
  GI50: 2540 nM
  TGI: 9.15 µM
KM12 colon
  GI50: 3.51 µM
  TGI: 13.5 µM
NCI-H226 lung
  GI50: 3.57 µM
  TGI: 18.6 µM
UACC-62 melanoma
  GI50: 1950 nM
  TGI: 4.42 µM
SK-OV-3 ovarian
  GI50: 4.72 µM
  TGI: 27.7 µM
RPMI-8226 leukemia
  GI50: 3.73 µM
  TGI: 17.8 µM
PC-3 prostate
  GI50: 5.54 µM
  TGI: 24.4 µM
SNB-75 CNS
  GI50: 2660 nM
  TGI: 10.3 µM
NCI-H460 lung
  GI50: 2850 nM
  TGI: 10.2 µM
HOP-62 NSCLC
  GI50: 3.78 µM
  TGI: 14.9 µM
ACHN renal
  GI50: 3.96 µM
  TGI: 15.8 µM
SNB-19 CNS
  GI50: 3.68 µM
  TGI: 21.8 µM
SF-295 CNS
  GI50: 1660 nM
  TGI: 4.66 µM
HCT-116 colon
  GI50: 2980 nM
  TGI: 10.5 µM
HCC-2998 colon
  GI50: 3.74 µM
  TGI: 14 µM
RXF 393 renal
  GI50: 3.93 µM
  TGI: 14.8 µM
NCI/ADR-RES ovarian
  GI50: 3.14 µM
  TGI: 11.4 µM
SF-268 CNS
  GI50: 2620 nM
  TGI: 11.2 µM
CAKI-1 renal
  GI50: 2260 nM
  TGI: 5.6 µM
DU-145 prostate
  GI50: 4.36 µM
  TGI: 15.8 µM
SN12C renal
  GI50: 3.89 µM
  TGI: 18.5 µM
UO-31 renal
  GI50: 2550 nM
  TGI: 8.38 µM
SK-MEL-28 melanoma
  GI50: 3.39 µM
  TGI: 11.7 µM
OVCAR-3 ovarian
  GI50: 2090 nM
  TGI: 8.13 µM
HOP-92 NSCLC
  GI50: 3.64 µM
  TGI: 16.1 µM
M14 melanoma
  GI50: 3.21 µM
  TGI: 12.7 µM
T-47D breast
  GI50: 3.14 µM
  TGI: 14.7 µM
UACC-257 melanoma
  GI50: 2990 nM
  TGI: 13 µM
SR leukemia
  GI50: 2470 nM
  TGI: 8.28 µM
SK-MEL-5 melanoma
  GI50: 4 µM
  TGI: 15.2 µM
HS 578T breast
  GI50: 4.33 µM
  TGI: 24.3 µM
OVCAR-8 ovarian
  GI50: 3.15 µM
  TGI: 10.9 µM
TK-10 renal
  GI50: 10.7 µM
  TGI: 82.4 µM
OVCAR-4 ovarian
  GI50: 3.63 µM
  TGI: 14.4 µM
A549 NSCLC
  GI50: 3.81 µM
  TGI: 18.3 µM
COLO 205 colon
  GI50: 3.58 µM
  TGI: 14.6 µM
A498 renal
  GI50: 3.72 µM
  TGI: 14.6 µM
HCT-15 colon
  GI50: 3.55 µM
  TGI: 18.5 µM
K-562 leukemia
  GI50: 3.36 µM
  TGI: 13.6 µM
